# Paper PMC3045100, “Cell-Penetrating Penta-Peptides (CPP5s): Measurement of Cell Entry and Protein-Transduction Activity” (Pharmaceuticals, 2010)
# Legend:
# CHO A745 cells = assay: Protection from staurosporine-induced apoptosis (Hoechst nuclear staining); type: cell-based, Chinese hamster; conditions: VPTLK 3 h pre-incubation, 100 nM STS for 3 and 6 h, Hoechst dye nuclear staining, triplicate samples
# Protocol: (§1) Figure 3 Protection of cells from apoptosis by VPTLK. a-d. Proteoglycan is not required for VPTLK cell entry. Microscopic analysis of cell entry of Fam-VPTLK in Chinese Hamster Ovary (CHO) A745 cells lacking proteoglycans in the plasma membrane (a) and CHO K1 cells that express proteoglycans (b). CHO A745 and K1 cells were incubated with Fam-VPTLK (200 μM) for 3 h at 37 °C. […] Apoptosis was determined by using Hoechst dye nuclear staining. Each bar represents the mean of triplicate samples and standard error, and statistical significance was determined by an unpaired student t test; “ns”: not significant, *P < 0.05, and **P < 0.01. e. […] Jurkat cells were pre-incubated with VPTLK 200 μM for 3 h prior to STS treatment (100 nM, 3 or 6 h). Apoptosis was determined by Hoechst dye nuclear staining. Each bar represents the mean of triplicate samples and standard error, and statistical significance was determined by an unpaired student t test: **P < 0.01. f. […] Apoptosis was determined by Hoechst dye nuclear staining. […]
# (§2) To induce Bax-mediated apoptosis in HeLa cells, cells were transfected with pEGFP-Bax (1 µg) and apoptosis was determined 24 h after the transfection. […] To detect apoptosis, cells were stained with Hoechst 33258 dye, and the numbers of cells with apoptotic nuclei were counted using fluorescence microscopy. Three-hundred cells were analyzed in triplicate samples. […]
# CHO K1 cells = assay: as above; type: cell-based, Chinese hamster; conditions: VPTLK 3 h pre-incubation, 100 nM STS for 3 and 6 h, Hoechst dye nuclear staining, triplicate samples
# Protocol: as §1, §2
substance,measurement,setting,value
VPTLK,"Protection from staurosporine treatment, CHO A745",CHO A745 cells,protected both cell lines
same,"Protection from staurosporine treatment, CHO K1",CHO K1 cells,protected both cell lines
